Reference: patent publication US6914045B2, “Glycopeptide antibiotics” (Wyeth Holdings Corporation, priority 2001, dated 2005)
≈ marks a conversion by molar mass, not a printed value.

Columns and labels:
Assay in all cases: in vitro antibacterial evaluation, MIC by broth dilution
Format in all cases: cell-based
[1] = tested on: Staphylococcus sp.; details: broth dilution, 18 hours at 35° C.; for MIC Staphylococcus aureus (GC 1131): strain GC 1131
How it was run: (§1)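 Broth dilution per NCCLS standard M7-A2 in Muller-Hinton II […], with an inoculum of 5×10^5 CFU/mL and antibiotic spanning 64-0.06 μg/mL. The MIC is the lowest concentration that inhibits growth of the organism.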

[2] = tested on: Streptococcus sp.; details: broth dilution, 18 hours at 35° C.; for MIC Streptococcus pneumoniae (ATCC 6301): strain ATCC 6301; for MIC Streptococcus pneumoniae (GC 1894): strain GC 1894; for MIC Streptococcus pyogenes (GC 4563): strain GC 4563; for MIC Streptococcus agalactiae (GC 4564): strain GC 4564; for MIC Streptococcus pneumoniae (GC 4565): strain GC 4565
How it was run: as §1

[3] = tested on: Enterococcus sp.; details: broth dilution, 18 hours at 35° C.; for MIC Enterococcus faecalis (ATCC 29212): strain ATCC 29212; for MIC Enterococcus faecalis (GC 2242): strain GC 2242; for MIC Enterococcus faecium (GC 2243): strain GC 2243; for MIC Enterococcus faecalis (GC 2691): strain GC 2691; for MIC Enterococcus faecalis (GC 3059): strain GC 3059; for MIC Enterococcus faecalis (GC 4552): strain GC 4552; for MIC Enterococcus faecalis (GC 4553): strain GC 4553; for MIC Enterococcus faecalis (GC 4554): strain GC 4554; for MIC Enterococcus faecium (GC 4556): strain GC 4556; for MIC Enterococcus faecium (GC 4557): strain GC 4557; for MIC Enterococcus avium (GC 4558): strain GC 4558; for MIC Enterococcus faecalis (GC 6189): strain GC 6189
How it was run: as §1

[4] = tested on: Escherichia coli
How it was run: as §1

CSc1ccc(C2OCC3OC(OC4C(CO)OC(Oc5ccc(CC6NC(=O)C(C(C)c7ccccc7)NC(=O)CNC(=O)C(CO)NC(=O)C(C(O)C7CNC(=N)N7C7OC(CO)C(O)C(O)C7O)NC(=O)C(C(O)C7CNC(=N)N7)NC6=O)cc5)C(O)C4O)C(O)C(O)C3O2)cc1[N+](=O)[O-] (stereo not shown) [Example 168]
MIC Staphylococcus aureus (GC 1131) ([1]; inoculum 5×10^5 CFU/mL): 1 µg/mL (≈ 0.678 µM)
MIC Staphylococcus aureus (ATCC 29213) ([1]; strain ATCC 29213): 1 µg/mL (≈ 0.678 µM)
MIC Staphylococcus aureus (GC 1131) [1]: 1 µg/mL (≈ 0.678 µM)
MIC Staphylococcus aureus (GC 3051) ([1]; strain GC 3051): 1 µg/mL (≈ 0.678 µM)
MIC Staphylococcus aureus (GC 3053) ([1]; strain GC 3053): 1 µg/mL (≈ 0.678 µM)
MIC Staphylococcus aureus (GC 4541) ([1]; strain GC 4541): 1 µg/mL (≈ 0.678 µM)
MIC Staphylococcus aureus (GC 4542) ([1]; strain GC 4542): 1 µg/mL (≈ 0.678 µM)
MIC Staphylococcus aureus-SMITH (GC 4543) ([1]; strain GC 4543): 1 µg/mL (≈ 0.678 µM)
MIC Staphylococcus aureus (GC 4544) ([1]; strain GC 4544): 2 µg/mL (≈ 1.36 µM)
MIC Staphylococcus aureus (GC 4545) ([1]; strain GC 4545): 1 µg/mL (≈ 0.678 µM)
MIC Staphylococcus haemolyticus (GC 4546) ([1]; strain GC 4546): 0.5 µg/mL (≈ 0.339 µM)
MIC Coagulase Negative Staphylococcus (GC 4547) ([1]; strain GC 4547): 2 µg/mL (≈ 1.36 µM)
MIC Coagulase Negative Staphylococcus (GC 4548) ([1]; strain GC 4548): 0.5 µg/mL (≈ 0.339 µM)
MIC Coagulase Negative Staphylococcus (GC 4549) ([1]; strain GC 4549): 0.5 µg/mL (≈ 0.339 µM)
MIC Coagulase Negative Staphylococcus (GC 4551) ([1]; strain GC 4551): 1 µg/mL (≈ 0.678 µM)
MIC Streptococcus pneumoniae (ATCC 6301) ([2]; inoculum 5×10^5 CFU/mL): <0.12 µg/mL
MIC Streptococcus pneumoniae (GC 1894) ([2]; inoculum 5×10^5 CFU/mL): <0.12 µg/mL
MIC Streptococcus pyogenes (GC 4563) ([2]; inoculum 5×10^5 CFU/mL): 0.5 µg/mL (≈ 0.339 µM)
MIC Streptococcus agalactiae (GC 4564) ([2]; inoculum 5×10^5 CFU/mL): <0.12 µg/mL
MIC Streptococcus pneumoniae (GC 4565) ([2]; inoculum 5×10^5 CFU/mL): <0.12 µg/mL
MIC Streptococcus pneumoniae (ATCC 6301) [2]: <0.12 µg/mL
MIC Streptococcus pneumoniae (GC 1894) [2]: <0.12 µg/mL
MIC Streptococcus pyogenes (GC 4563) [2]: 0.5 µg/mL (≈ 0.339 µM)
MIC Streptococcus agalactiae (GC 4564) [2]: <0.12 µg/mL
MIC Streptococcus pneumoniae (GC 4565) [2]: <0.12 µg/mL
MIC Enterococcus faecalis (ATCC 29212) ([3]; inoculum 5×10^5 CFU/mL): 2 µg/mL (≈ 1.36 µM)
MIC Enterococcus faecalis (GC 2242) ([3]; inoculum 5×10^5 CFU/mL): 2 µg/mL (≈ 1.36 µM)
MIC Enterococcus faecium (GC 2243) ([3]; inoculum 5×10^5 CFU/mL): 2 µg/mL (≈ 1.36 µM)
MIC Enterococcus faecalis (GC 2691) ([3]; inoculum 5×10^5 CFU/mL): 2 µg/mL (≈ 1.36 µM)
MIC Enterococcus faecalis (GC 3059) ([3]; inoculum 5×10^5 CFU/mL): 2 µg/mL (≈ 1.36 µM)
MIC Enterococcus faecalis (GC 4552) ([3]; inoculum 5×10^5 CFU/mL): 2 µg/mL (≈ 1.36 µM)
MIC Enterococcus faecalis (GC 4553) ([3]; inoculum 5×10^5 CFU/mL): 2 µg/mL (≈ 1.36 µM)
MIC Enterococcus faecalis (GC 4554) ([3]; inoculum 5×10^5 CFU/mL): 2 µg/mL (≈ 1.36 µM)
MIC Enterococcus faecium (GC 4556) ([3]; inoculum 5×10^5 CFU/mL): 2 µg/mL (≈ 1.36 µM)
MIC Enterococcus faecium (GC 4557) ([3]; inoculum 5×10^5 CFU/mL): 1 µg/mL (≈ 0.678 µM)
MIC Enterococcus avium (GC 4558) ([3]; inoculum 5×10^5 CFU/mL): 2 µg/mL (≈ 1.36 µM)
MIC Enterococcus faecalis (GC 6189) ([3]; inoculum 5×10^5 CFU/mL): 2 µg/mL (≈ 1.36 µM)
MIC Enterococcus faecalis (ATCC 29212) [3]: 2 µg/mL (≈ 1.36 µM)
MIC Enterococcus faecalis (GC 2242) [3]: 2 µg/mL (≈ 1.36 µM)
MIC Enterococcus faecium (GC 2243) [3]: 2 µg/mL (≈ 1.36 µM)
MIC Enterococcus faecalis (GC 2691) [3]: 2 µg/mL (≈ 1.36 µM)
MIC Enterococcus faecalis (GC 3059) [3]: 2 µg/mL (≈ 1.36 µM)
MIC Enterococcus faecalis (GC 4552) [3]: 2 µg/mL (≈ 1.36 µM)
MIC Enterococcus faecalis (GC 4553) [3]: 2 µg/mL (≈ 1.36 µM)
MIC Enterococcus faecalis (GC 4554) [3]: 2 µg/mL (≈ 1.36 µM)
MIC Enterococcus faecium (GC 4556) [3]: 2 µg/mL (≈ 1.36 µM)
MIC Enterococcus faecium (GC 4557) [3]: 1 µg/mL (≈ 0.678 µM)
MIC Enterococcus avium (GC 4558) [3]: 2 µg/mL (≈ 1.36 µM)
MIC Enterococcus faecalis (GC 6189) [3]: 2 µg/mL (≈ 1.36 µM)
MIC Escherichia coli (ATCC 25922) ([4]; strain ATCC 25922, 18 hours at 35° C.): 64 µg/mL (≈ 43.4 µM)
MIC Escherichia coli (GC 4559) ([4]; strain GC 4559, 18 hours at 35° C.): 16 µg/mL (≈ 10.9 µM)
MIC Escherichia coli (GC 4560) ([4]; strain GC 4560, 18 hours at 35° C.): 0.5 µg/mL (≈ 0.339 µM)
